Results published in PubChem BioAssay (NCI).
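A five-concentration, 48-hour dose response in 96-well plates underlies each endpoint, interpolated linearly between surrounding concentrations. GI50: concentration for 50% inhibition of growth. TGI is the concentration that stops growth completely.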

What was measured:
Test in all cases: NCI-60 cell line screen, 48 h
[1] = test system: DMS 273 small cell lung
[2] = test system: HOP-62 NSCLC
[3] = test system: NCI-H226 lung
[4] = test system: NCI-H460 lung
[5] = test system: RPMI-8226 leukemia
[6] = test system: RXF 393 renal
[7] = test system: SF-268 CNS
[8] = test system: SNB-78 CNS
[9] = test system: XF 498 CNS
[10] = test system: 786-0 renal
[11] = test system: ACHN renal
[12] = test system: MDA-MB-435
[13] = test system: MDA-N

`c1ccc2c(c1)SP1Sc3ccccc3P21` (stereo not given) was tested, and the TGI [1] was greater than 100 µM, the TGI [2] was greater than 100 µM and the TGI [3] was greater than 66.6 µM. The TGI [4] was greater than 100 µM, the TGI [5] was greater than 100 µM and the TGI [6] was greater than 100 µM. For the same compound, the TGI [7] was greater than 100 µM, the TGI [8] was greater than 100 µM and the TGI [9] was greater than 100 µM.

`CC(=O)OC1CC(OC2C(O)CC(OC3C(O)CC(OC4CCC5(C)C(CCC6C5CCC5(C)C(C7=CC(=O)OC7)CCC65O)C4)OC3C)OC2C)OC(C)C1OC1OC(CO)C(O)C(O)C1O` (stereo not given) gave a TGI [10] of 0.0598 µM, a TGI [11] of 0.0942 µM and a TGI [2] of less than 0.0156 µM. The TGI [12] was 0.172 µM, the TGI [13] was 0.152 µM and the TGI [3] was 0.241 µM. The TGI [4] was 0.0245 µM, the TGI [5] was 7.43 µM and the TGI [6] was 0.101 µM. For the same compound, the TGI [7] was 0.129 µM.

`O=C1C(c2c(O)[nH]c3ccc(Cl)cc23)=Nc2ccccc21` was tested, and the TGI [10] was 3.9 µM, the TGI [11] was 20.3 µM and the TGI [2] was 38 µM. For the same compound, the TGI [12] was greater than 100 µM, the TGI [13] was greater than 100 µM and the TGI [3] was 37 µM. The TGI [4] was greater than 100 µM, the TGI [5] was greater than 100 µM and the TGI [6] was 7.11 µM. The TGI [7] was 33.6 µM.

Work on `COCCNCc1ccc(-c2cc3nccc(Oc4ccc(NC(=O)C5(C(=O)Nc6ccc(F)cc6)CC5)cc4F)c3s2)nc1` yielded a GI50 [2] of 1.57 µM, a TGI [2] of 3.43 µM and a GI50 [12] of 1.31 µM. It also gave a TGI [12] of 2.68 µM, a GI50 [3] of 1.89 µM and a TGI [3] of 4.73 µM. The GI50 [4] was 1.66 µM, the TGI [4] was 3.4 µM and the GI50 [5] was 2.05 µM. For the same compound, the TGI [5] was 5.07 µM.

With `COC(=O)c1sc2c(c1C(=O)OC)C(=NC(C)(C)C)SC2=NC(C)(C)C` the TGI [10] was 30.4 µM, the TGI [11] was 33.1 µM and the TGI [2] was 39 µM. For the same compound, the TGI [12] was 34.6 µM, the TGI [13] was 34 µM and the TGI [3] was 34.9 µM. For the same compound, the TGI [4] was 34.9 µM, the TGI [5] was 41.4 µM and the TGI [6] was 19.3 µM. For the same compound, the TGI [7] was 36 µM.

`COc1cc(NCCC(=O)O)c2ncccc2c1` gave a TGI [10] greater than 100 µM, a TGI [11] greater than 100 µM and a TGI [2] greater than 100 µM. It also gave a TGI [12] greater than 100 µM, a TGI [13] greater than 100 µM and a TGI [3] greater than 100 µM. It also gave a TGI [4] greater than 100 µM, a TGI [6] greater than 100 µM and a TGI [7] greater than 100 µM.

For `Cc1ccc(C(C)C)c(OCC(=O)N/N=C/c2c[nH]c3ccc(Br)cc23)c1`, the TGI [10] was 12.6 µM, the TGI [11] was 16.5 µM and the TGI [2] was 22 µM. It also gave a TGI [12] of 2.93 µM, a TGI [13] of 2.94 µM and a TGI [4] of 6.4 µM. For the same compound, the TGI [5] was 7.32 µM, the TGI [6] was 3.42 µM and the TGI [7] was 23.9 µM.

`Clc1cc(OCc2nn3c(Cc4ccccc4)nnc3s2)c(Cl)cc1OCc1nn2c(Cc3ccccc3)nnc2s1` gave a TGI [10] greater than 100 µM, a TGI [11] greater than 100 µM and a TGI [2] greater than 100 µM. It also gave a TGI [12] greater than 100 µM, a TGI [13] greater than 100 µM and a TGI [3] greater than 100 µM. For the same compound, the TGI [4] was greater than 100 µM, the TGI [5] was 30.1 µM and the TGI [6] was 75.4 µM. The TGI [7] was greater than 100 µM.

`CN(C)c1cccc(OC(=O)NCCCl)c1` was tested, and the TGI [1] was greater than 100 µM, the TGI [2] was greater than 100 µM and the TGI [3] was greater than 100 µM. The TGI [4] was greater than 100 µM, the GI50 [5] was greater than 100 µM and the TGI [5] was greater than 100 µM. The GI50 [6] was greater than 100 µM, the TGI [6] was greater than 100 µM and the TGI [7] was greater than 100 µM. The GI50 [8] was greater than 100 µM, the TGI [8] was greater than 100 µM and the TGI [9] was greater than 100 µM.

`O=C(Sc1n[nH]c(=O)[nH]c1=O)c1cccc2nc3ccccc3nc12` was tested, and the TGI [10] was greater than 100 µM, the TGI [11] was greater than 100 µM and the TGI [12] was 29 µM. The TGI [13] was 28.6 µM, the TGI [3] was greater than 100 µM and the TGI [4] was greater than 100 µM. It also gave a TGI [5] greater than 100 µM, a TGI [6] greater than 100 µM and a TGI [7] greater than 100 µM.

With `Cc1cccc2c1Sc1ccccc1C2NC(=O)CN(C)C` (stereo not given) the TGI [11] was greater than 100 µM, the TGI [1] was greater than 100 µM and the TGI [2] was greater than 100 µM. The TGI [3] was greater than 100 µM, the TGI [4] was greater than 100 µM and the TGI [5] was greater than 100 µM. The TGI [6] was greater than 100 µM, the TGI [7] was greater than 100 µM and the TGI [8] was greater than 100 µM. For the same compound, the TGI [9] was greater than 100 µM.

`Nc1ccc(Cn2ccc3c4c(N)nc(N)nc4ccc32)cc1` showed a TGI [10] of 16.4 µM, a TGI [11] of 6.58 µM and a TGI [1] of 11.9 µM. It also gave a TGI [2] of 5.09 µM, a TGI [12] of 6.15 µM and a TGI [13] of 14.2 µM. It also gave a TGI [3] of 27.7 µM, a TGI [4] of 5.58 µM and a TGI [5] greater than 100 µM. It also gave a TGI [6] of 15.4 µM, a TGI [7] of 25.6 µM and a TGI [8] of 32.5 µM. The TGI [9] was 2.9 µM.

Compound `Cc1ccc(Nc2nc(=O)c3c([nH]c4ccccc43)s2)cc1` has a TGI [10] of 27.6 µM, a TGI [11] of 35.4 µM and a TGI [2] of 21.8 µM. For the same compound, the TGI [12] was 7.4 µM, the TGI [13] was 5.87 µM and the TGI [4] was 25.7 µM. It also gave a TGI [5] of 23.6 µM and a TGI [7] of 35.6 µM.

With `c1ccc2c(c1)SCCc1cn[nH]c1-2` the TGI [1] was greater than 100 µM, the TGI [2] was greater than 100 µM and the TGI [3] was greater than 100 µM. The TGI [4] was greater than 100 µM, the TGI [6] was greater than 100 µM and the TGI [7] was greater than 100 µM. It also gave a TGI [8] greater than 100 µM and a TGI [9] greater than 100 µM.

For `CO/C=C1\OC(=O)C=C1OC`, the TGI [1] was greater than 100 µM, the TGI [3] was greater than 100 µM and the TGI [4] was greater than 100 µM. For the same compound, the TGI [5] was greater than 100 µM, the TGI [6] was greater than 100 µM and the TGI [7] was greater than 100 µM. For the same compound, the TGI [8] was greater than 100 µM and the TGI [9] was greater than 100 µM.

In the case of `NNC(=O)c1cc([N+](=O)[O-])ccc1NC(=O)C12CC3CC(CC(C3)C1)C2`, the TGI [10] is reported as greater than 100 µM, the TGI [11] is reported as 36.1 µM and the TGI [2] is reported as greater than 100 µM. The TGI [12] was 48.5 µM, the TGI [13] was greater than 100 µM and the TGI [3] was 40.3 µM. It also gave a TGI [4] of 62.8 µM, a TGI [5] of 35.8 µM and a TGI [6] of 42.2 µM. It also gave a TGI [7] greater than 100 µM.

With `c1csc(-c2ccc(CNc3c4ccccc4nc4ccccc34)cc2)c1` the GI50 [2] was 6.29 µM, the TGI [2] was 38.4 µM and the GI50 [12] was 0.322 µM. It also gave a TGI [12] of 1.09 µM, a GI50 [3] of 5.57 µM and a TGI [3] of 38.6 µM. It also gave a GI50 [5] of 1.85 µM, a TGI [5] of 4.8 µM and a GI50 [6] of 1.25 µM. For the same compound, the TGI [6] was 2.73 µM.
